Consider one molecule from patent US8952024B2, “Herbicidal pyrimidone derivatives” (E I du Pont de Nemours and Company, priority 2009, dated 2015).

The structures appear in SMILES notation.

The subject of one experiment is velvetleaf (Abutilon theophrasti). The experiment is described as follows: Test A pre-/postemergence plant response. Format: in vivo. As to conditions: Postemergence, 125 g ai/ha; 0 to 100 scale where 0 is no effect and 100 is complete control. Put shortly: (§1)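 Pre: directed soil spray on seeded loam/sand blend. Post: same formulation (non-phytotoxic solvent + surfactant) on 2–10 cm plants, 1–2 leaf stage. Greenhouse ~10 d; visual injury score 0–100 vs untreated.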
`O=C1CCCC(O)=C1C(=O)c1cnc(-c2cccc(F)c2)n(CCC(F)(F)F)c1=O` [Compound 208]: the “Plant response rating, Velvetleaf” value is 100.

The same experiment, now with this note: Postemergence, 500 g ai/ha; visual injury, 0 to 100 scale (0 no effect, 100 complete control), approx. ten days.
As for `O=C1CCCC(O)=C1C(=O)c1cnc(-c2cccc(F)c2)n(CCC(F)(F)F)c1=O` [Compound 208], the “Velvetleaf plant response rating” value is listed as 100.

The same experiment, now with this note: Preemergence, 125 g ai/ha; 0 to 100 scale, 0 = no effect, 100 = complete control.
Take `O=C1CCCC(O)=C1C(=O)c1cnc(-c2cccc(F)c2)n(CCC(F)(F)F)c1=O` [Compound 208]: the “Plant response rating, Velvetleaf” value is on record as 60.

Still in this experiment, the particulars now being: Preemergence, 500 g ai/ha; 0 to 100 scale, 0 = no effect, 100 = complete control.
Consider `O=C1CCCC(O)=C1C(=O)c1cnc(-c2cccc(F)c2)n(CCC(F)(F)F)c1=O` [Compound 208], for which the “Plant response rating, Velvetleaf” value was 90.

The next experiment relates to wheat (Triticum aestivum). The experiment is described as follows: Test A pre-/postemergence plant response. As to conditions: Postemergence, 125 g ai/ha; 0 to 100 scale where 0 is no effect and 100 is complete control. It counts as in vivo. The method, boiled down:
as §1
As to `O=C1CCCC(O)=C1C(=O)c1cnc(-c2cccc(F)c2)n(CCC(F)(F)F)c1=O` [Compound 208], the “Plant response rating, Wheat” value was found to be 0.

Staying with this experiment, now noted: Postemergence, 500 g ai/ha; visual injury, 0 to 100 scale (0 no effect, 100 complete control), approx. ten days.
Take `O=C1CCCC(O)=C1C(=O)c1cnc(-c2cccc(F)c2)n(CCC(F)(F)F)c1=O` [Compound 208]: the “Wheat plant response rating” value is 10.

The experiment is the same for the next values; noted with them: Preemergence, 125 g ai/ha; 0 to 100 scale, 0 = no effect, 100 = complete control.
In the case of `O=C1CCCC(O)=C1C(=O)c1cnc(-c2cccc(F)c2)n(CCC(F)(F)F)c1=O` [Compound 208], the “Plant response rating, Wheat” value came to 0.

Staying with this experiment, now noted: Preemergence, 500 g ai/ha; 0 to 100 scale, 0 = no effect, 100 = complete control.
Consider `O=C1CCCC(O)=C1C(=O)c1cnc(-c2cccc(F)c2)n(CCC(F)(F)F)c1=O` [Compound 208], for which the “Plant response rating, Wheat” value is reported as 20.

Another experiment has as its system barnyardgrass (Echinochloa crus-galli). The experiment is described as follows: Test B flooded paddy test. Format: in vivo. As to conditions: 250 g ai/ha; flooded paddy test; visual rating on 0 to 100 scale (0 no effect, 100 complete control) after 13 to 15 days. The method, boiled down: (§2)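 Ratings are visual, 0–100 (100 = complete control), taken versus untreated controls 13 to 15 days after treatment in the greenhouse. Compound went straight into paddy water held 3 cm above soil, applied to 2-leaf-stage plants of four species.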
Turning to `O=C1CCCC(O)=C1C(=O)c1cnc(-c2cccc(F)c2)n(CCC(F)(F)F)c1=O` [Compound 208], the “Plant response rating, Flood, Barnyardgrass” value came out at 25.

The same experiment, now with this note: Flood (flooded paddy test), 62 g ai/ha; scale of 0 to 100 where 0 is no effect and 100 is complete control; 13 to 15 days.
Consider `O=C1CCCC(O)=C1C(=O)c1cnc(-c2cccc(F)c2)n(CCC(F)(F)F)c1=O` [Compound 208], for which the “Plant response rating, Barnyardgrass” value turned out to be 0.

The same experiment, now with this note: Flood (flooded paddy test), 125 g ai/ha; scale 0 to 100, 0 is no effect, 100 is complete control; 13 to 15 days.
For `O=C1CCCC(O)=C1C(=O)c1cnc(-c2cccc(F)c2)n(CCC(F)(F)F)c1=O` [Compound 208], the “Plant response rating, Barnyardgrass” value is given as 15.

The experiment is the same for the next values; noted with them: Flood, 31 g ai/ha; scale 0 to 100 (0 no effect, 100 complete control).
`O=C1CCCC(O)=C1C(=O)c1cnc(-c2cccc(F)c2)n(CCC(F)(F)F)c1=O` [Compound 208]: the “Barnyardgrass plant response rating” value worked out at 0.

In the next experiment the test system is ducksalad (Heteranthera limosa). As to the kind of experiment: Test B flooded paddy test. It counts as in vivo. As to conditions: 250 g ai/ha; flooded paddy test; visual rating on 0 to 100 scale (0 no effect, 100 complete control) after 13 to 15 days. The method, boiled down:
as §2
Consider `O=C1CCCC(O)=C1C(=O)c1cnc(-c2cccc(F)c2)n(CCC(F)(F)F)c1=O` [Compound 208], for which the “Plant response rating, Flood, Ducksalad” value came to 75.

The same experiment, now with this note: Flood (flooded paddy test), 62 g ai/ha; scale of 0 to 100 where 0 is no effect and 100 is complete control; 13 to 15 days.
For `O=C1CCCC(O)=C1C(=O)c1cnc(-c2cccc(F)c2)n(CCC(F)(F)F)c1=O` [Compound 208], the “Plant response rating, Ducksalad” value was 30.

The same experiment, now with this note: Flood (flooded paddy test), 125 g ai/ha; scale 0 to 100, 0 is no effect, 100 is complete control; 13 to 15 days.
In the case of `O=C1CCCC(O)=C1C(=O)c1cnc(-c2cccc(F)c2)n(CCC(F)(F)F)c1=O` [Compound 208], the “Plant response rating, Ducksalad” value stood at 40.

Still in this experiment, the particulars now being: Flood, 31 g ai/ha; scale 0 to 100 (0 no effect, 100 complete control).
Take `O=C1CCCC(O)=C1C(=O)c1cnc(-c2cccc(F)c2)n(CCC(F)(F)F)c1=O` [Compound 208]: the “Ducksalad plant response rating” value is recorded as 0.

For another experiment, the system named is rice (Oryza sativa). As to the kind of experiment: Test B flooded paddy test. As to conditions: 250 g ai/ha; flooded paddy test; visual rating on 0 to 100 scale (0 no effect, 100 complete control) after 13 to 15 days. It counts as in vivo. Put shortly:
as §2
On to `O=C1CCCC(O)=C1C(=O)c1cnc(-c2cccc(F)c2)n(CCC(F)(F)F)c1=O` [Compound 208], for which the “Plant response rating, Flood, Rice” value amounted to 0.

The experiment is the same for the next values; noted with them: Flood (flooded paddy test), 62 g ai/ha; scale of 0 to 100 where 0 is no effect and 100 is complete control; 13 to 15 days.
As for `O=C1CCCC(O)=C1C(=O)c1cnc(-c2cccc(F)c2)n(CCC(F)(F)F)c1=O` [Compound 208], the “Plant response rating, Rice” value came out at 0.

The experiment is the same for the next values; noted with them: Flood (flooded paddy test), 125 g ai/ha; scale 0 to 100, 0 is no effect, 100 is complete control; 13 to 15 days.
For `O=C1CCCC(O)=C1C(=O)c1cnc(-c2cccc(F)c2)n(CCC(F)(F)F)c1=O` [Compound 208], the “Plant response rating, Rice” value is on record as 0.

Still in this experiment, the particulars now being: Flood, 31 g ai/ha; scale 0 to 100 (0 no effect, 100 complete control).
Turning to `O=C1CCCC(O)=C1C(=O)c1cnc(-c2cccc(F)c2)n(CCC(F)(F)F)c1=O` [Compound 208], the “Rice plant response rating” value is listed as 0.

The subject of another experiment is umbrella sedge (Cyperus difformis). The experiment is described as follows: Test B flooded paddy test. It counts as in vivo. The following applies: 250 g ai/ha; flooded paddy test; visual rating on 0 to 100 scale (0 no effect, 100 complete control) after 13 to 15 days. Put shortly:
as §2
As to `O=C1CCCC(O)=C1C(=O)c1cnc(-c2cccc(F)c2)n(CCC(F)(F)F)c1=O` [Compound 208], the “Plant response rating, Flood, Sedge, Umbrella” value is on record as 70.

Still in this experiment, the particulars now being: Flood (flooded paddy test), 62 g ai/ha; scale of 0 to 100 where 0 is no effect and 100 is complete control; 13 to 15 days.
Turning to `O=C1CCCC(O)=C1C(=O)c1cnc(-c2cccc(F)c2)n(CCC(F)(F)F)c1=O` [Compound 208], the “Plant response rating, Sedge, Umbrella” value was 40.

The same experiment, now with this note: Flood (flooded paddy test), 125 g ai/ha; scale 0 to 100, 0 is no effect, 100 is complete control; 13 to 15 days.
As to `O=C1CCCC(O)=C1C(=O)c1cnc(-c2cccc(F)c2)n(CCC(F)(F)F)c1=O` [Compound 208], the “Plant response rating, Sedge, Umbrella” value is given as 40.

Still in this experiment, the particulars now being: Flood, 31 g ai/ha; scale 0 to 100 (0 no effect, 100 complete control).
With `O=C1CCCC(O)=C1C(=O)c1cnc(-c2cccc(F)c2)n(CCC(F)(F)F)c1=O` [Compound 208], the “Sedge, Umbrella plant response rating” value came to 0.
